One assay concerns pERK in DLD1 cells. Nature of the assay: ERK phosphorylation assay after EGF stimulation. The assay is classed as cell-based. The settings on record: Homo sapiens, DLD-1, compound 2 h, 200 ng/ml hEGF 5 minutes, alphascreen pERK, read-out: ERK phosphorylation inhibition IC50. An outline of the steps:
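DLD1 cells pretreated 2 h with compound, then stimulated 5 minutes with 200 ng/ml hEGF. Lysates assayed for ERK1/2 p-T202/Y204 by AlphaScreen SureFire, read after 2 h at 25-28° C.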

A further assay addresses T1, hSOS1 and hKRASG12C (Homo sapiens, UniProt Q07889).
T1 sequence (Q07889 564-1049): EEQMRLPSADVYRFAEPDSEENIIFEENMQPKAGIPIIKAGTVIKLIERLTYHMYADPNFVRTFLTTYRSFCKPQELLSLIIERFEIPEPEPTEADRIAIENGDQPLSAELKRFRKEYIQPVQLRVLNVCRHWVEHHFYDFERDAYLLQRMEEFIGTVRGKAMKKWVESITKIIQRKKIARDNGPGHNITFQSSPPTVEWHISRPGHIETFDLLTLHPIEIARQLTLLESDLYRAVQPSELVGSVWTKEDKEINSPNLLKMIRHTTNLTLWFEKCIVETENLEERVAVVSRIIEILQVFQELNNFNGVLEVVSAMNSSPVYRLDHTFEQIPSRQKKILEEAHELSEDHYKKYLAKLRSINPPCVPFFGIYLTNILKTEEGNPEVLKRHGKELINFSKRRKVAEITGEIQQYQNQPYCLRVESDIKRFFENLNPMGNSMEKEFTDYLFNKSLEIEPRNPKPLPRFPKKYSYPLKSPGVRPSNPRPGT
In words: biochemical.

The target in assay [1] is T2, hSOS1 mediated nucleotide exchange on hKRASG12C (Homo sapiens, UniProt Q07889).
T2 sequence (Q07889 564-1049): T1 sequence (Q07889 564-1049)
In words: biochemical.

Structures are written as SMILES.

Broadly, the IC50 is the midpoint of a concentration-inhibition curve. As to `Cc1nc(N[C@H](C)c2cc(N)cc(C(F)(F)F)c2)c2cc(N3CCC(CO)CC3)c3c(c2n1)CCC3` [Compound 49, (R)-(1-(4-((1-(3-amino-5-(trifluoromethyl)phenyl)ethyl)amino)-2-methyl-8,9-dihydro-7H-cyclopenta[h]quinazolin-6-yl)piperidin-4-yl)methanol], the IC50 in the assay with pERK in DLD1 cells lay within 1 to 200 nM; at hSOS1 and hKRASG12C, 1 to 10 nM; in assay [1] it was 1 to 30 nM.
In the same order, the values of `Cc1nc(N[C@H](C)c2cc(N)cc(C(F)(F)F)c2)c2cc(N3CCC(C)(O)CC3)c3c(c2n1)CCC3` [Compound 50, (R)-1-(4-((1-(3-amino-5-(trifluoromethyl)phenyl)ethyl)amino)-2-methyl-8,9-dihydro-7H-cyclopenta[h]quinazolin-6-yl)-4-methylpiperidin-4-ol] are 1 to 200 nM, 1 to 10 nM and 1 to 30 nM.
For the compound `Cc1nc(N[C@H](C)c2cc(N)cc(C(F)(F)F)c2)c2cc(N3CCOCC3)c3c(c2n1)CC(C)O3` (mixture of isomers) [Compound 117a, (R/S)—N—((R)-1-(3-amino-5-(trifluoromethyl)phenyl)ethyl)-2,8-dimethyl-6-morpholino-8,9-dihydrofuro[2,3-h]quinazolin-4-amine], the IC50 in the assay on pERK in DLD1 cells lay within 1 to 200 nM; on hSOS1 and hKRASG12C, 1 to 10 nM; in assay [1], 31 to 70 nM.
For `Cc1nc(N[C@H](C)c2cc(N)cc(C(F)(F)F)c2)c2cc(N3CC4(COC4)C3)c3c(c2n1)CCC3` [Compound 33, (R)—N-(1-(3-amino-5-(trifluoromethyl)phenyl)ethyl)-2-methyl-6-(2-oxa-6-azaspiro[3.3]heptan-6-yl)-8,9-dihydro-7H-cyclopenta[h]quinazolin-4-amine], the IC50 was 1 to 200 nM with pERK in DLD1 cells; 1 to 10 nM at hSOS1 and hKRASG12C; 1 to 30 nM in assay [1].
As to `COCC1(O)CCN(c2cc3c(N[C@H](C)c4cccc(C(F)(F)CO)c4F)nc(C)nc3c3c2CCC3)CC1` [Compound 68, (R)-1-(4-((1-(3-(1,1-difluoro-2-hydroxyethyl)-2-fluorophenyl)ethyl)amino)-2-methyl-8,9-dihydro-7H-cyclopenta[h]quinazolin-6-yl)-4-(methoxymethyl)piperidin-4-ol], the IC50 in the assay on pERK in DLD1 cells lay in the range of 1 to 200 nM; on hSOS1 and hKRASG12C, 1 to 10 nM; in assay [1], 1 to 30 nM.
In the same order, the values of `COCC1(O)CCN(c2cc3c(N[C@H](C)c4cccc(C(F)(F)[C@@H](C)O)c4F)nc(C)nc3c3c2CCC3)CC1` (single isomer, unassigned) [Compound 72b] are 1 to 200 nM, 1 to 10 nM and 1 to 30 nM.
Turning to `Cc1nc(N[C@H](C)c2cccc(C(F)(F)[C@@](C)(O)CO)c2F)c2cc(N3CCOCC3)c3c(c2n1)CCC3` (racemic) [Compound 82b, (S/R)-3,3-difluoro-3-(2-fluoro-3-((S/R)-1-((2-methyl-6-morpholino-8,9-dihydro-7H-cyclopenta[h]quinazolin-4-yl)amino)ethyl)phenyl)-2-methylpropane-1,2-diol], the half-maximal inhibitory concentration (IC50) was in the range of 1 to 200 nM with pERK in DLD1 cells; 1 to 10 nM against hSOS1 and hKRASG12C; 1 to 30 nM in assay [1].
`COC[C@H]1CN(c2cc3c(N[C@H](C)c4cccc(C(F)(F)C(C)(C)O)c4F)nc(C)nc3c3c2CCC3)CCO1` [Compound 62, 1,1-difluoro-1-(2-fluoro-3-((R)-1-((6-((R)-2-(methoxymethyl)morpholino)-2-methyl-8,9-dihydro-7H-cyclopenta[h]quinazolin-4-yl)amino)ethyl)phenyl)-2-methylpropan-2-ol]: the IC50 in the assay with pERK in DLD1 cells is 1 to 200 nM; against hSOS1 and hKRASG12C, 1 to 10 nM; in assay [1], 1 to 30 nM.
With `Cc1nc(N[C@H](C)c2cc(N)cc(C(F)(F)F)c2)c2cc(N3CCN(C)C(=O)C3)c3c(c2n1)CCC3` [Compound 56, (R)-4-(4-((1-(3-amino-5-(trifluoromethyl)phenyl)ethyl)amino)-2-methyl-8,9-dihydro-7H-cyclopenta[h]quinazolin-6-yl)-1-methylpiperazin-2-one], the half-maximal inhibitory concentration (IC50) was in the range of 1 to 200 nM in the assay with pERK in DLD1 cells; 1 to 10 nM at hSOS1 and hKRASG12C; 1 to 30 nM in assay [1].
With `Cc1nc(N[C@H](C)c2cc(N)cc(C(F)(F)F)c2)c2cc(N3CCOCC3)c3c(c2n1)CCC3` [Compound 2, (R)—N-(1-(3-amino-5-(trifluoromethyl)phenyl)ethyl)-2-methyl-6-morpholino-8,9-dihydro-7H-cyclopenta[h]quinazolin-4-amine], the half-maximal inhibitory concentration (IC50) in the assay on pERK in DLD1 cells fell in the range of 1 to 200 nM; on hSOS1 and hKRASG12C it was 1 to 10 nM; in assay [1], 1 to 30 nM.
In the case of `Cc1nc(N[C@H](C)c2cccc(C(F)(F)C(C)(C)O)c2F)c2cc(N3CCC(C)(CO)CC3)c3c(c2n1)CCC3` [Compound 60, (R)-1,1-difluoro-1-(2-fluoro-3-(1-((6-(4-(hydroxymethyl)-4-methylpiperidin-1-yl)-2-methyl-8,9-dihydro-7H-cyclopenta[h]quinazolin-4-yl)amino)ethyl)phenyl)-2-methylpropan-2-ol], the half-inhibitory concentration (IC50) with pERK in DLD1 cells was 1 to 200 nM; against hSOS1 and hKRASG12C, 1 to 10 nM; in assay [1], 1 to 30 nM.
In the case of `Cc1nc(N[C@H](C)c2cccc(C(F)(F)CO)c2F)c2cc(N3CCOCC3)c3c(c2n1)CCC3` [Compound 75, (R)-2,2-difluoro-2-(2-fluoro-3-(1-((2-methyl-6-morpholino-8,9-dihydro-7H-cyclopenta[h]quinazolin-4-yl)amino)ethyl)phenyl)ethan-1-ol], the half-inhibitory concentration (IC50) in the assay on pERK in DLD1 cells fell in the range of 1 to 200 nM; on hSOS1 and hKRASG12C, 1 to 10 nM; in assay [1], 1 to 30 nM.
Taken in the same sequence, the figures for `Cc1nc(N[C@H](C)c2cc(N)cc(C(F)(F)F)c2)c2cc(N3CCNC(=O)C3)c3c(c2n1)CCC3` [Compound 53, (R)-4-(4-((1-(3-amino-5-(trifluoromethyl)phenyl)ethyl)amino)-2-methyl-8,9-dihydro-7H-cyclopenta[h]quinazolin-6-yl)piperazin-2-one] were 1 to 200 nM, 1 to 10 nM and 1 to 30 nM.
In the case of `Cc1nc(N[C@H](C)c2cccc(C(F)(F)C(C)O)c2F)c2cc(N3CC4(COC4)C3)c3c(c2n1)CCC3` (single isomer, unassigned) [Compound 73a], the IC50 with pERK in DLD1 cells lay within 1 to 200 nM; on hSOS1 and hKRASG12C it was 1 to 10 nM; in assay [1], 1 to 30 nM.
In the same order, the values of `Cc1nc(N[C@H](C)c2cc(N)cc(C(F)(F)F)c2)c2cc(N3CCC(C(C)(C)O)CC3)c3c(c2n1)CCC3` [Compound 51, (R)-2-(1-(4-((1-(3-amino-5-(trifluoromethyl)phenyl)ethyl)amino)-2-methyl-8,9-dihydro-7H-cyclopenta[h]quinazolin-6-yl)piperidin-4-yl)propan-2-ol] are 1 to 200 nM, 1 to 10 nM and 1 to 30 nM.

Values taken from US12435066B2, “Substituted tricyclic compounds” (LUPIN LIMITED, priority 2019, dated 2025).
